From patent US20250353848A1, “HETEROCYCLIC PAD4 INHIBITORS” (Celgene Corporation, priority 2022, published 2025)

molecular target: hPAD4 enzyme (Homo sapiens, UniProt Q9UM07); test: RFMS Assay 1 (rapid-fire mass spectrum PAD4 inhibition assay, BAEE substrate); format: biochemical; details: 5 nM hPAD4 enzyme, 250 μM BAEE, 30 mins compound and enzyme preincubation at 37° C., 90 min enzyme/substrate reaction
Description: Compounds were solubilized in 100% DMSO to achieve a 10 mM compound concentration. Compound stock solutions were stored at RT. A series of dilutions were prepared in DMSO and mixed 8 times with 20 μL mixing volume. Final top concentration of compound in the assay is 50 μM. Final assay conditions were as follows: • Reaction volume: 26 μl • Assay buffer: 25 mM hepes, pH 7.5, 5 mM NaCl, 1 mM DTT, 0.2 mg/ml BSA, 0.01% CHAPS, 50 μM Calcium, and 5 μM TPEN • Final concentrations: 5 nM hPAD4 enzyme, 250 μM BAEE, and 0.5% DMSO • Total incubation time: 30 mins compound and enzyme preincubation at 37° C., 90 min enzyme/substrate reaction, 30 min reaction with phenyl glyoxal at 37° C. • Stop solution: 40 μl 5% TCA in ACN
0.13 μL of compound solution was added to 13 μL of 10 nM PAD4 in assay buffer. After 30 min 13 μl of 500 μM of BAEE was added in 25 mM hepes, pH 7.5, 5 mM NaCl, 1 mM DTT, 0.2 mg/ml BSA, 0.01% CHAPS, 50 µM Calcium, […] was added and the reaction incubated for 90 min at 37° C. The enzymatic reaction was quenched by addition of 15 μl of 6.1N TCA, 100% Final Concentration is 20%, 35 μl of 8.5 mM phenyl glyoxal (final concentration 4 mM) is then added and the reaction is incubated for 30 min at 37° C.
After 30 minutes the plates are spun down to remove all precipitate. The enzyme reaction was quenched with an equal volume of methanol containing internal standard (modified citrulline). Samples were loaded onto the Rapid Fire RF300 system (Agilent) wherein they were first sipped for 1000 ms and then directly loaded to a C18 separations cartridge using a mixture of acetonitrile containing 0.01% formic acid for 3000 ms desalting. The flow rate of the mobile phase was 1.5 ml/min. Once the samples were eluted from the cartridge, a mobile phase of acetonitrile containing 0.01% formic acid was used to move the samples into the mass spectrometer for 4000 ms at a flow rate of 1.25 ml/min/Sciex AP15500 triple quadrupole mass spectrometer (Applied Biosystems) equipped with ESI was used to analyze the peptidyl citrulline and internal standard ions.
MRM transition of product and internal standard were monitored at m/z 424.5 to 350.4 and m/z 293 to 247 respectively. The dwell time for each transition was set at 200 ms, and the ESI voltage was used at 5500 with a source temperature of 400° C. Extracted ion peaks for each transition were integrated using the Rapid Fire Integrator software. Peak area of analyte was normalized with internal standard.).

Chain of hPAD4 enzyme (Q9UM07 whole entry): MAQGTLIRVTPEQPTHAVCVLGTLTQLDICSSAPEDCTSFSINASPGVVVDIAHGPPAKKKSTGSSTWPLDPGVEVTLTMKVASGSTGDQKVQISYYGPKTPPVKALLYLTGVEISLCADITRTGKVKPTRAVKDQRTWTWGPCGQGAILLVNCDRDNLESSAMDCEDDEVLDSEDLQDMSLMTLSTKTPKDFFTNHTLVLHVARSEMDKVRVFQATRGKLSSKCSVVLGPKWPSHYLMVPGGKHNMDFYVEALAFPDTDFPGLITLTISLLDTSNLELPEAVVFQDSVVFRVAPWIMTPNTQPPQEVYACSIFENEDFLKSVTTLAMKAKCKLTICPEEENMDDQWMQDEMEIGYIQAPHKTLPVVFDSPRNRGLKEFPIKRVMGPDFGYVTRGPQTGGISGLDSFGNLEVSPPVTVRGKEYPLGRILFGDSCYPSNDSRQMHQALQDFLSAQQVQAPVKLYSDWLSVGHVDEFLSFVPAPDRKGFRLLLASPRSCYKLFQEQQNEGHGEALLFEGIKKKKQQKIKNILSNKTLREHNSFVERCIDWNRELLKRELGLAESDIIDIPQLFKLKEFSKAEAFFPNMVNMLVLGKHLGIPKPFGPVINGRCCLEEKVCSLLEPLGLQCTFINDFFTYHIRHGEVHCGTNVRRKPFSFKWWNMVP

Row | SMILES | IC50 [nM]
1 | Cn1cc(CCOc2cccc3cc(-c4nc5cc6c(nc5n4C)CCN(C[C@H](N)CF)C6=O)n(CC4CC4)c23)cn1 [Example 51, (S)-7-(2-amino-3-fluoropropyl)-2-(1-(cyclopropylmethyl)-7-(2-(1-methyl-1H-pyrazol-4-yl)ethoxy)-1H-indol-2-yl)-3-methyl-3,5,6,7-tetrahydro-8H-imidazo[4,5-b][1,6]naphthyridin-8-one] | ≤ 10
2 | Cn1c(-c2cc3cccc(OC[C@H]4CNS(=O)(=O)C4)c3n2CC2CC2)nc2cc3c(nc21)CCN(C[C@H](N)CF)C3=O [Example 52, 7-((S)-2-amino-3-fluoropropyl)-2-(1-(cyclopropylmethyl)-7-(((R)-1,1-dioxidoisothiazolidin-4-yl)methoxy)-1H-indol-2-yl)-3-methyl-3,5,6,7-tetrahydro-8H-imidazo[4,5-b][1,6]naphthyridin-8-one] | 11 to 100
3 | CN1C[C@H](COc2cccc3cc(-c4nc5cc6c(nc5n4C)CCN(C[C@H](N)CF)C6=O)n(CC4CC4)c23)CS1(=O)=O [Example 53, 7-((S)-2-amino-3-fluoropropyl)-2-(1-(cyclopropylmethyl)-7-(((R)-2-methyl-1,1-dioxidoisothiazolidin-4-yl)methoxy)-1H-indol-2-yl)-3-methyl-3,5,6,7-tetrahydro-8H-imidazo[4,5-b][1,6]naphthyridin-8-one] | 101 to 500
4 | Cc1nnc(CCOc2cccc3cc(-c4nc5cc6c(nc5n4C)CCN(C[C@H](N)CF)C6=O)n(CC4CC4)c23)s1 [Example 55, (S)-7-(2-amino-3-fluoropropyl)-2-(1-(cyclopropylmethyl)-7-(2-(5-methyl-1,3,4-thiadiazol-2-yl)ethoxy)-1H-indol-2-yl)-3-methyl-3,5,6,7-tetrahydro-8H-imidazo[4,5-b][1,6]naphthyridin-8-one] | 101 to 500
5 | Cn1c(-c2cc3cccc(OCCc4cccnc4)c3n2CC2CC2)nc2cc3c(nc21)CCN(C[C@H](N)CF)C3=O [Example 56, (S)-7-(2-amino-3-fluoropropyl)-2-(1-(cyclopropylmethyl)-7-(2-(pyridin-3-yl)ethoxy)-1H-indol-2-yl)-3-methyl-3,5,6,7-tetrahydro-8H-imidazo[4,5-b][1,6]naphthyridin-8-one] | ≤ 10
6 | Cn1c(-c2cc3cccc(OCCc4ccncc4)c3n2CC2CC2)nc2cc3c(nc21)CCN(C[C@H](N)CF)C3=O [Example 57, (S)-7-(2-amino-3-fluoropropyl)-2-(1-(cyclopropylmethyl)-7-(2-(pyridin-4-yl)ethoxy)-1H-indol-2-yl)-3-methyl-3,5,6,7-tetrahydro-8H-imidazo[4,5-b][1,6]naphthyridin-8-one] | 11 to 100
7 | Cn1c(-c2cc3cccc(OCCc4ccccn4)c3n2CC2CC2)nc2cc3c(nc21)CCN(C[C@H](N)CF)C3=O [Example 58, (S)-7-(2-amino-3-fluoropropyl)-2-(1-(cyclopropylmethyl)-7-(2-(pyridin-2-yl)ethoxy)-1H-indol-2-yl)-3-methyl-3,5,6,7-tetrahydro-8H-imidazo[4,5-b][1,6]naphthyridin-8-one] | 101 to 500
8 | C[C@@H](Cn1ccnc1)Oc1cccc2cc(-c3nc4cc5c(nc4n3C)CCN(C[C@H](N)CF)C5=O)n(CC3CC3)c12 [Example 63, 2-(7-(((S)-1-(1H-imidazol-1-yl)propan-2-yl)oxy)-1-(cyclopropylmethyl)-1H-indol-2-yl)-7-((S)-2-amino-3-fluoropropyl)-3-methyl-3,5,6,7-tetrahydro-8H-imidazo[4,5-b][1,6]naphthyridin-8-one] | 11 to 100
9 | C[C@@H](Cn1cnc(F)c1)Oc1cccc2cc(-c3nc4cc5c(nc4n3C)CCN(C[C@H](N)CF)C5=O)n(CC3CC3)c12 [Example 66, 7-((S)-2-amino-3-fluoropropyl)-2-(1-(cyclopropylmethyl)-7-(((S)-1-(4-fluoro-1H-imidazol-1-yl)propan-2-yl)oxy)-1H-indol-2-yl)-3-methyl-3,5,6,7-tetrahydro-8H-imidazo[4,5-b][1,6]naphthyridin-8-one] | ≤ 10
10 | C[C@H](Cn1cnc(F)c1)Oc1cccc2cc(-c3nc4cc5c(nc4n3C)CCN(C[C@H](N)CF)C5=O)n(CC3CC3)c12 [Example 67, 7-((S)-2-amino-3-fluoropropyl)-2-(1-(cyclopropylmethyl)-7-(((R)-1-(4-fluoro-1H-imidazol-1-yl)propan-2-yl)oxy)-1H-indol-2-yl)-3-methyl-3,5,6,7-tetrahydro-8H-imidazo[4,5-b][1,6]naphthyridin-8-one] | ≤ 10
11 | C[C@@H](COc1cccc2cc(-c3nc4cc5c(nc4n3C)CCN(C[C@H](N)CF)C5=O)n(CC3CC3)c12)n1ccnc1 [Example 80, 2-(7-((S)-2-(1H-imidazol-1-yl)propoxy)-1-(cyclopropylmethyl)-1H-indol-2-yl)-7-((S)-2-amino-3-fluoropropyl)-3-methyl-3,5,6,7-tetrahydro-8H-imidazo[4,5-b][1,6]naphthyridin-8-one] | 11 to 100

The remaining lines, values ahead:

Row | IC50 [nM] | SMILES
12 | 101 to 500 | C[C@@H](Cn1cncc1F)Oc1cccc2cc(-c3nc4cc5c(nc4n3C)CCN(C[C@H](N)CF)C5=O)n(CC3CC3)c12 [Example 68, 7-((S)-2-amino-3-fluoropropyl)-2-(1-(cyclopropylmethyl)-7-(((S)-1-(5-fluoro-1H-imidazol-1-yl)propan-2-yl)oxy)-1H-indol-2-yl)-3-methyl-3,5,6,7-tetrahydro-8H-imidazo[4,5-b][1,6]naphthyridin-8-one]
13 | 11 to 100 | C[C@H](Cn1cncc1F)Oc1cccc2cc(-c3nc4cc5c(nc4n3C)CCN(C[C@H](N)CF)C5=O)n(CC3CC3)c12 [Example 69, 7-((S)-2-amino-3-fluoropropyl)-2-(1-(cyclopropylmethyl)-7-(((R)-1-(5-fluoro-1H-imidazol-1-yl)propan-2-yl)oxy)-1H-indol-2-yl)-3-methyl-3,5,6,7-tetrahydro-8H-imidazo[4,5-b][1,6]naphthyridin-8-one]
14 | ≤ 10 | C[C@H](COc1cccc2cc(-c3nc4cc5c(nc4n3C)CCN(C[C@@H](C)N)C5=O)n(CC3CC3)c12)n1cnc(F)c1 [Example 81, 7-((R)-2-aminopropyl)-2-(1-(cyclopropylmethyl)-7-((R)-2-(4-fluoro-1H-imidazol-1-yl)propoxy)-1H-indol-2-yl)-3-methyl-3,5,6,7-tetrahydro-8H-imidazo[4,5-b][1,6]naphthyridin-8-one]
15 | ≤ 10 | C[C@H](COc1nccc2cc(-c3nc4cc5c(nc4n3C)CCN(C[C@H](N)CF)C5=O)n(CC3CC3)c12)n1cnc(F)c1 [Example 83, 7-((S)-2-amino-3-fluoropropyl)-2-(1-(cyclopropylmethyl)-7-((R)-2-(4-fluoro-1H-imidazol-1-yl)propoxy)-1H-pyrrolo[2,3-c]pyridin-2-yl)-3-methyl-3,5,6,7-tetrahydro-8H-imidazo[4,5-b][1,6]naphthyridin-8-one]
16 | 11 to 100 | C[C@@H](COc1cccc2cc(-c3nc4cc5c(nc4n3C)CCN(C[C@H](N)CF)C5=O)n(CC3CC3)c12)n1cnc(C#N)c1 [Example 87, 1-((S)-1-((2-(7-((S)-2-amino-3-fluoropropyl)-3-methyl-8-oxo-5,6,7,8-tetrahydro-3H-imidazo[4,5-b][1,6]naphthyridin-2-yl)-1-(cyclopropylmethyl)-1H-indol-7-yl)oxy)propan-2-yl)-1H-imidazole-4-carbonitrile]
17 | 101 to 500 | C[C@@H](COc1cccc2cc(-c3nc4cc5c(nc4n3C)CCN(C[C@H](N)CF)C5=O)n(CC3CC3)c12)n1cncc1C#N [Example 88, 1-((S)-1-((2-(7-((S)-2-amino-3-fluoropropyl)-3-methyl-8-oxo-5,6,7,8-tetrahydro-3H-imidazo[4,5-b][1,6]naphthyridin-2-yl)-1-(cyclopropylmethyl)-1H-indol-7-yl)oxy)propan-2-yl)-1H-imidazole-5-carbonitrile]
18 | 101 to 500 | Cn1c(-c2cc3cccc(OCCn4ccnc4C#N)c3n2CC2CC2)nc2cc3c(nc21)CCN(C[C@H](N)CF)C3=O [Example 89, (S)-1-(2-((2-(7-(2-amino-3-fluoropropyl)-3-methyl-8-oxo-5,6,7,8-tetrahydro-3H-imidazo[4,5-b][1,6]naphthyridin-2-yl)-1-(cyclopropylmethyl)-1H-indol-7-yl)oxy)ethyl)-1H-imidazole-2-carbonitrile]
19 | ≤ 10 | [2H]c1nc([2H])n(CCOc2cccc3cc(-c4nc5cc6c(nc5n4C)CCN(C[C@H](N)CF)C6=O)n(CC4CC4)c23)c1[2H] [Example 90, (S)-2-(7-(2-(1H-imidazol-1-yl-d3)ethoxy)-1-(cyclopropylmethyl)-1H-indol-2-yl)-7-(2-amino-3-fluoropropyl)-3-methyl-3,5,6,7-tetrahydro-8H-imidazo[4,5-b][1,6]naphthyridin-8-one]
